Data reported in ChEMBL document CHEMBL1144890, “3D QSAR analyses-guided rational design of novel ligands for the (alpha4)2(beta2)3 nicotinic acetylcholine receptor” (J Med Chem, 2003).

Target: Neuronal acetylcholine receptor; alpha4/beta2 (Rattus norvegicus, UniProt P09483+P12390)
Assay: In vitro binding affinity towards (alpha-4)2(beta-2)3 neuronal nicotinic acetylcholine receptor in P2 membrane fractions of rat forebrain
Type: cell membranes

Chain of Neuronal acetylcholine receptor; alpha4/beta2 (P09483 whole entry): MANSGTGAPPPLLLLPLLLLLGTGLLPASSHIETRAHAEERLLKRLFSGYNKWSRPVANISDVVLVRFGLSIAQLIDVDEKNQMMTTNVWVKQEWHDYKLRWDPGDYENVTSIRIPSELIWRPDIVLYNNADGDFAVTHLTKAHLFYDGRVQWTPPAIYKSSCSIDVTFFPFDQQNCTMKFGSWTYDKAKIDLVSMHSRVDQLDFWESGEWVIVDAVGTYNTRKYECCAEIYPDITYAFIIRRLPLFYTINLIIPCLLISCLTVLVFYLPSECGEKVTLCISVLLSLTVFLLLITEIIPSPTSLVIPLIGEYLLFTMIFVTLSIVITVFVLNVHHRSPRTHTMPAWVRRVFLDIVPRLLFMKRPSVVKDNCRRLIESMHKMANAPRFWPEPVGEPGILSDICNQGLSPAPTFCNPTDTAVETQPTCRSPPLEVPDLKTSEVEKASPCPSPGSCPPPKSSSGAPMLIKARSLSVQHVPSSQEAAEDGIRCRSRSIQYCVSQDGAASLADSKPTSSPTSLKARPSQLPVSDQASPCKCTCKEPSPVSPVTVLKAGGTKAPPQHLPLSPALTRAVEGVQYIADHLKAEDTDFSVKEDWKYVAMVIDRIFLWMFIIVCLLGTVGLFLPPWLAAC
Chain of Neuronal acetylcholine receptor; alpha4/beta2 (P12390 whole entry): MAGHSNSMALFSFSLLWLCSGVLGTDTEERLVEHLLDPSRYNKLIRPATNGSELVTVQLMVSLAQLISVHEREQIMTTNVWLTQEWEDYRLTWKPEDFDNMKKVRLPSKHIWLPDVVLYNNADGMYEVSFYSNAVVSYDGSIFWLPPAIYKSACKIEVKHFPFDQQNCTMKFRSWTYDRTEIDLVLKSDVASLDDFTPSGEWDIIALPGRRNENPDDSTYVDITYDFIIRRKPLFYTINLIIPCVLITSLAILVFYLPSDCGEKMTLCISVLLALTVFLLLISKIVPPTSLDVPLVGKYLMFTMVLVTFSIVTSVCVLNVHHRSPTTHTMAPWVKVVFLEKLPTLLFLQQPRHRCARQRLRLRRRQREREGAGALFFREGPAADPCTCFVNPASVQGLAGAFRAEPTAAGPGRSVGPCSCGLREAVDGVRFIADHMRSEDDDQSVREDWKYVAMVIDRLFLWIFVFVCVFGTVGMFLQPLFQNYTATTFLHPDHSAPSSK

Compound | Ki
CN1C2C=C(c3cncnc3)CC1CC2 (stereo in doubt; 58) | 1.26 nM
CN1C2CCC1CN(c1cnccn1)CC2 (centres undefined) | 263 nM
C1=C(c2cncnc2)C2CCN1CC2 | 12.3 nM
Clc1ncc(C2=CCCC3CCC2N3)cn1 (centres undefined) | 0.151 nM
CN1C2C=C(c3cncnc3)CC1CC2 (stereo in doubt; 33) | 43.7 nM
CN1C2CC=C(c3cncnc3)C1CC2 (centres undefined) | 12.6 nM
Clc1ncc(C2=CC3CCC(C2)N3)cn1 (centres undefined) | 0.708 nM
C1=C(c2ccnnc2)CC2CCC1N2 (centres undefined) | 10 nM
CN1C2CCC1C(c1ccc(Br)nc1)C2 (centres undefined) | 0.0363 nM
Clc1ccc(C2=CN3CCC2CC3)cn1 | 2.29 nM
CN1C2CC=C(c3cccnc3)C1CC2 (centres undefined) | 9.55 nM
C1=C(c2ccnnc2)C2CCC(CC1)N2 (centres undefined) | 19.1 nM
C1=C(c2cncnc2)C2CCC(C1)N2 (centres undefined) | 3.72 nM
O=c1c(Cl)cc(Cl)c2n1CC1CNCC2C1 (centres undefined) | 2.51 nM
CN1C2CCC1CN(c1cncnc1)CC2 (centres undefined) | 2.09 nM
CN1C2CCC1C(c1ccc(Cl)nc1)C2 (centres undefined) | 0.0269 nM
S=c1cccc2n1CC1CNCC2C1 (centres undefined) | 0.832 nM
COC(=O)C1=C(c2cncnc2)CC2CCC1N2C (centres undefined) | 214 nM
O=c1ccc(I)c2n1CC1CNCC2C1 (centres undefined) | 0.229 nM
C1=C(c2ccnnc2)C2CCC(C1)N2 (centres undefined) | 7.94 nM
Fc1ccc(C2CC3CCC2N3)cn1 (centres undefined) | 0.0282 nM
O=c1ccc(Br)c2n1CC1CNCC2C1 (centres undefined) | 0.309 nM

Compound | Ki
CN(C)C(=S)C1=CCC2CCC1N2C (centres undefined) | > 20000 nM
CN(C)C(=O)C1=CCC2CCC1N2 (centres undefined) | 61700 nM
CC(=O)C1=CCC2CCC1N2C (centres undefined) | 120 nM
CN1C2CC=C(c3ccc(Cl)nc3)C1CC2 (centres undefined) | 8.91 nM
CN1C2CCC1CN(c1ccc(Cl)nc1)CC2 (centres undefined) | 0.871 nM
C1=C(c2cccnc2)C2CCC(C1)N2 (centres undefined) | 1.58 nM
O=c1c(I)cc(I)c2n1CC1CNCC2C1 (centres undefined) | 0.525 nM
CN1C2CCC1CN(c1ccnnc1)CC2 (centres undefined) | 0.525 nM
Cc1cc(C2=CCC3CCC2N3C)on1 (centres undefined) | 31.6 nM
O=c1cccc2n1C[C@@H]1CNC[C@H]2C1 [CYTISINICLINE] | 0.123 nM
C1=C(c2cncnc2)C2CCC(CC1)N2 (centres undefined) | 0.141 nM
C1=C(c2cccnc2)CC2CCC1N2 (centres undefined) | 0.257 nM
CN1CC2CC(C1)c1cccc(=O)n1C2 (centres undefined) | 5.75 nM
COC(=O)C1=C(c2ccc(Cl)nc2)CC2CCC1N2C (centres undefined) | 1660 nM
C1=C(c2cccnc2)C2CCC(CC1)N2 (centres undefined) | 0.0513 nM
C1=C(c2cncnc2)CC2CCC1N2 (centres undefined) | 0.661 nM
CN1C2C=C(c3ccc(Cl)nc3)CC1CC2 (centres undefined) | 1.55 nM
O=c1c(Br)cc(Br)c2n1CC1CNCC2C1 (centres undefined) | 10.7 nM
c1nncc2c1CC1CCC2N1 (centres undefined) | 75.9 nM
CN1C2CCC1CN(c1ccc(Cl)nn1)CC2 (centres undefined) | 0.55 nM
c1ncc2c(n1)C1CCC(C2)N1 (centres undefined) | > 10000 nM
Clc1nccnc1C1=CCC2CCC1N2 (centres undefined) | 4170 nM

Compound | Ki
Clc1nccnc1C1=CC2CCC(C1)N2 (centres undefined) | 209 nM
C1=C(c2cnccn2)C2CCC(CC1)N2 (centres undefined) | 12 nM
C1=C(c2cccnc2)C2CCN1CC2 | 7.59 nM
CN1C2CCC1C(c1ccc(F)nc1)C2 (centres undefined) | 0.0282 nM
O=c1ccc(Cl)c2n1CC1CNCC2C1 (centres undefined) | 2.51 nM
Ic1ccc(C2CC3CCC2N3)cn1 (centres undefined) | 0.0251 nM
COC(=O)C1=C(c2cccnc2)CC2CCC1N2C (centres undefined) | 4900 nM
C1=C(c2cnccn2)C2CCC(C1)N2 (centres undefined) | 398 nM
O=c1c(Cl)ccc2n1CC1CNCC2C1 (centres undefined) | 0.0224 nM
CC(=O)C1=CCC2CCC1N2 (centres undefined) | 93.3 nM
O=c1c(I)ccc2n1CC1CNCC2C1 (centres undefined) | 0.017 nM
Clc1ncc(C2=CCC3CCC2N3)cn1 (centres undefined) | 2 nM
CN(C)C(=S)C1=CCC2CCC1N2 (centres undefined) | 2450 nM
c1ncc2c(n1)CC1CCC2N1 (centres undefined) | 676 nM
O=c1c(Br)ccc2n1CC1CNCC2C1 (centres undefined) | 0.01 nM
CN(C)C(=O)C1=CCC2CCC1N2C (centres undefined) | 2000 nM
c1cncc(C2CC3CCC2N3)c1 (centres undefined) [DESCHLOROEPIBATIDINE] | 0.0257 nM
C1=C(c2cnccn2)CC2CCC1N2 (centres undefined) | 30.9 nM
c1nncc2c1CCC1CCC2N1 (centres undefined) | 34.7 nM
Brc1ccc(C2CC3CCC2N3)cn1 (centres undefined) | 0.0447 nM
